# According to patent EP4257135A1, “BENZIMIDAZOLE DERIVATIVES FOR PULMONARY ARTERIAL HYPERTENSION” (Justus-Liebig-Universität Gießen, priority 2022, dated 2023):
# System: PAH-FBs
# Assay: Apoptosis by Cell Death Detection ELISAPLUS in PAH fibroblasts
# Assay type: cell-based, human
# Conditions: PAH-FBs isolated ex vivo; various concentrations; vs DMSO; 24 h
# From the text: Diese Untersuchungen führten zu der Erkenntnis, dass die epigenetische Regulation der entwicklungsbedingten TF-Expression in der Lunge durch Modulation der EP300/CREBBP-Funktion rückgängig gemacht werden kann. Die Wirkung des niedermolekularen Inhibitors (Substanz, Wirkstoff) SGC-CBP30 auf die Proliferation von Gefäßzellen, die Apoptose sowie die Gen- und Proteinexpression wurde mit Hilfe geeigneter Assays nach der Transfektion untersucht. Nachdem Zellen zur Subkonfluenz gewachsen sind, wurde ihnen mit steigenden Konzentrationen der selektive EP300-Inhibitor SGC-CBP30 (Sigma, Katalognummer: SML1133) hinzugefügt. Die aus PAH-Patienten isolierten FBs wurden also mit dem isoformselektiven HAT-Inhibitor SGC-CBP30 behandelt. Gleichzeitig wurde den Zellen das Lösungsmittel DMSO (Sigma) mit entsprechenden Konzentrationen hinzugefügt. […]
# • A: PAH-FBs wurden mit siRNAs (siP300) behandelt, die auf EP300 abzielen (n=3), um die genspezifische funktionelle Rolle von EP300 bei der Hyperproliferation ex vivo 48 Stunden nach der Transfektion zu untersuchen. […] Skalenbalken: 50 µm. • E: Die Wirkung der P300-Inhibition (200 µM) auf den Gefäßumbau wurde durch Quantifizierung der prozentualen medialen Wanddicke in den mit dem EP300/CREBBP-Inhibitor SGC-CBP30 inkubierten PCLS im Vergleich zu den mit DMSO inkubierten Kontrollen bewertet. […]
smiles,measurement,value
"COc1ccc(CCc2nc3cc(-c4c(C)noc4C)ccc3n2C[C@H](C)N2CCOCC2)cc1Cl [SGC-CBP30, 2-[2-(3-Chloro-4-methoxyphenyl)ethyl]-5-(3,5-dimethyl-1,2-oxazol-4-yl)-1-[(S)-2-(morpholin-4-yl)propyl]-1H-benzimidazole]",Apoptoserate,schwächte den hyperproliferativen Phänotyp und die Apoptoserate von PAH-FBs und PAH-SMCs deutlich ab
